Test results: patent US10583140B2, “Ingenol analogs, pharmaceutical compositions and methods of use thereof” (GlaxoSmithKline Intellectual Property Development Limited, priority 2016, dated 2020)

What follows are molecules tested on HIV-infected Jurkat cell clones (C16, I15 and N6) (assay: Jurkat HIV Latency assay (HIV activation, luciferase)). Conditions: Homo sapiens, HIV activation by HIV expressed luciferase (Steady-Glo), cells incubated with compound 24 hours at 37° C.
Assay type: cell-based
Experimental: For the Jurkat HIV Latency assay, compounds are dissolved and titrated in DMSO and diluted 100-fold in assay medium (RPMI-1640 containing 10% fetal bovine serum) containing an equal mixture of three HIV-infected Jurkat cell clones (C16, I15 and N6) at a total concentration of 1-2×10e^5 cells/mL. To test stability, compounds are pre-incubated in an assay medium for 48 hours at 37° C. prior to adding cells (48 hr EC50). Compounds that induce HIV expression result in a dose-dependent production of the HIV expressed luciferase enzyme. After the incubation of cells with compound for 24 hours at 37° C., HIV activation and cytotoxicity are determined by measuring luminescence after the addition of Promega Steady-Glo® Luciferase Assay reagent or CellTiter-Glo® Luminescent Cell Viability Assay reagent, respectively.

Compound | EC50 [nM]
CC(=O)OCC1=C[C@@H]2C(=O)[C@]3(C=C(C)[C@H](OC(=O)N(C)c4ccc(Cl)cc4)[C@@]3(O)[C@@H]1O)[C@H](C)C[C@@H]1[C@H]2C1(C)C [Example 1, ((1aR,2S,5R,5aS,6S,8aS,9R,10aR)-6-(((4-chlorophenyl) (methyl)carbamoyl)oxy)-5,5a-dihydroxy-1,1,7,9-tetramethyl-11-oxo-1a,2,5,5a,6,9,10,10a-octahydro-1H-2,8a-methanocyclopenta[a]cyclopropa[e][10]annulen-4-yl)methyl acetate] | 7
CC1=C[C@]23C(=O)[C@@H](C=C(COC(=O)c4ccccc4)[C@@H](O)[C@]2(O)[C@H]1OC(=O)N(C)c1ccc(Cl)cc1)[C@H]1[C@@H](C[C@H]3C)C1(C)C [Example 2, ((1aR,2S,5R,5aS,6S,8aS,9R,10aR)-6-(((4-chlorophenyl) (methyl)carbamoyl)oxy)-5,5a-dihydroxy-1,1,7,9-tetramethyl-11-oxo-1a,2,5,5a,6,9,10,10a-octahydro-1H-2,8a-methanocyclopenta [a]cyclopropa[e][10]annulen-4-yl)methyl benzoate] | 22
CC1=C[C@]23C(=O)[C@@H](C=C(CN4C(=O)c5ccccc5C4=O)[C@@H](O)[C@]2(O)[C@H]1OC(=O)N(C)c1ccc(Cl)cc1)[C@H]1[C@@H](C[C@H]3C)C1(C)C [Example 3, (1aR,2S,5R,5aS,6S,8aS,9R,10aR)-4-((1,3-dioxoisoindolin-2-yl)methyl)-5,5a-dihydroxy-1,1,7,9-tetramethyl-11-oxo-1a,2,5,5a,6,9,10,10a-octahydro-1H-2,8a-methanocyclopenta[a]cyclopropa[e][10]annulen-6-yl (4-chlorophenyl) (methyl)carbamate] | 1110
CC1=C[C@]23C(=O)[C@@H](C=C(CO)[C@@H](O)[C@]2(O)C1=O)[C@H]1[C@@H](C[C@H]3C)C1(C)C [Example 4, (1aR,2S,5R,5aS,8aS,9R,10aR)-5,5a-dihydroxy-4-(hydroxymethyl)-1,1,7,9-tetramethyl-1a,2,5,5a,10,10a-hexahydro-1H-2,8a-methanocyclopenta[a]cyclopropa[e][10]annulene-6,11 (9H)-dione] | 4940
CC1=C[C@]23C(=O)[C@@H](C=C(COC(=O)N(C)c4ccc(Cl)cc4)[C@@H](O)[C@]2(O)[C@H]1O)[C@H]1[C@@H](C[C@H]3C)C1(C)C [Example 5, ((1aR,2S,5R,5aR,6S,8aS,9R,10aR)-5,5a,6-trihydroxy-1,1,7,9-tetramethyl-11-oxo-1a,2,5,5a,6,9,10,10a-octahydro-1H-2,8a-methanocyclopenta[a]cyclopropa[e][10]annulen-4-yl)methyl (4-chlorophenyl)(methyl)carbamate] | 616
CC1=C[C@]23C(=O)[C@@H](C=C(COC(=O)Nc4ccccc4)[C@@H](O)[C@]2(O)[C@H]1O)[C@H]1[C@@H](C[C@H]3C)C1(C)C [Example 6, ((1aR,2S,5R,5aR,6S,8aS,9R,10aR)-5,5a,6-trihydroxy-1,1,7,9-tetramethyl-11-oxo-1a,2,5,5a,6,9,10,10a-octahydro-1H-2,8a-methanocyclopenta[a]cyclopropa[e][10]annulen-4-yl)methyl phenylcarbamate] | 3680
CCCCNC(=O)OCC1=C[C@@H]2C(=O)[C@]3(C=C(C)[C@H](O)[C@@]3(O)[C@@H]1O)[C@H](C)C[C@@H]1[C@H]2C1(C)C [Example 7, ((1aR,2S,5R,5aR,6S,8aS,9R,10aR)-5,5a,6-trihydroxy-1,1,7,9-tetramethyl-11-oxo-1a,2,5,5a,6,9,10,10a-octahydro-1H-2,8a-methanocyclopenta[a]cyclopropa[e][10]annulen-4-yl)methyl butylcarbamate] | 1050
CC1=C[C@]23C(=O)[C@@H](C=C(COC(=O)NCc4ccccc4)[C@@H](O)[C@]2(O)[C@H]1O)[C@H]1[C@@H](C[C@H]3C)C1(C)C [Example 8, ((1aR,2S,5R,5aR,6S,8aS,9R,10aR)-5,5a,6-trihydroxy-1,1,7,9-tetramethyl-11-oxo-1a,2,5,5a,6,9,10,10a-octahydro-1H-2,8a-methanocyclopenta[a]cyclopropa[e][10]annulen-4-yl)methyl benzylcarbamate] | 4330
CC1=C[C@]23C(=O)[C@@H](C=C(COC(=O)N(C)C4CCCCC4)[C@@H](O)[C@]2(O)[C@H]1O)[C@H]1[C@@H](C[C@H]3C)C1(C)C [Example 9, ((1aR,2S,5R,5aR,6S,8aS,9R,10aR)-5,5a,6-trihydroxy-1,1,7,9-tetramethyl-11-oxo-1a,2,5,5a,6,9,10,10a-octahydro-1H-2,8a-methanocyclopenta[a]cyclopropa[e][10]annulen-4-yl)methyl cyclohexyl(methyl)carbamate] | 50000
CC1=C[C@]23C(=O)[C@@H](C=C(COC(=O)N4CCc5ccccc54)[C@@H](O)[C@]2(O)[C@H]1O)[C@H]1[C@@H](C[C@H]3C)C1(C)C [Example 10, ((1aR,2S,5R,5aR,6S,8aS,9R,10aR)-5,5a,6-trihydroxy-1,1,7,9-tetramethyl-11-oxo-1a,2,5,5a,6,9,10,10a-octahydro-1H-2,8a-methanocyclopenta[a]cyclopropa[e][10]annulen-4-yl)methyl indoline-1-carboxylate] | 278
CC1=C[C@]23C(=O)[C@@H](C=C(COC(=O)N4CCc5ccccc54)[C@@H](O)[C@]2(O)[C@H]1OC(=O)N1CCc2ccccc21)[C@H]1[C@@H](C[C@H]3C)C1(C)C [Example 11, (1aR,2S,5R,5aS,6S,8aS,9R,10aR)-5,5a-dihydroxy-4-(((indoline-1-carbonyl)oxy)methyl)-1,1,7,9-tetramethyl-11-oxo-1a,2,5,5a,6,9,10,10a-octahydro-1H-2,8a-methanocyclopenta[a]cyclopropa[e][10]annulen-6-yl indoline-1-carboxylate] | 3500
CC1=C[C@]23C(=O)[C@@H](C=C(COc4ncc(C(F)(F)F)cn4)[C@@H](O)[C@]2(O)[C@H]1O)[C@H]1[C@@H](C[C@H]3C)C1(C)C [Example 12, (1aR,2S,5R,5aR,6S,8aS,9R,10aR)-5,5a,6-trihydroxy-1,1,7,9-tetramethyl-4-(((5-(trifluoromethyl)pyrimidin-2-yl)oxy)methyl)-1a,2,5,5a,6,9,10,10a-octahydro-1H-2,8a-methanocyclopenta[a]cyclopropa[e][10]annulen-11-one] | 5170
